# Test results: the kinase profiling compilation of Christmann-Franck et al. (2016)
# Columns and labels:
# Assay in all cases: KINOMEscan competition binding
# Details in all cases: compound 10.0 µM
# PTK2B (human) = PTK2B (human) (UniProt Q14289)
# MAP4K4 (human) = MAP4K4 (human) (UniProt O95819)
# CSNK1G3 (human) = CSNK1G3 (human) (UniProt Q9Y6M4)
# PAK6 (human) = PAK6 (human) (UniProt Q9NQU5)
# ACVR2B (human) = ACVR2B (human) (UniProt Q13705)
# CAMK2G (human) = CAMK2G (human) (UniProt Q13555)
# ADCK3 (human) = ADCK3 (human) (UniProt Q8NI60)
# CDK9 (human) = CDK9 (human) (UniProt P50750)
# CHEK2 (human) = CHEK2 (human) (UniProt O96017)
# TNK1 (human) = TNK1 (human) (UniProt Q13470)
# CIT (human) = CIT (human) (UniProt O14578)
# RIPK4 (human) = RIPK4 (human) (UniProt P57078)
# EPHA5 (human) = EPHA5 (human) (UniProt P54756)
# MINK1 (human) = MINK1 (human) (UniProt Q8N4C8)
# RIOK3 (human) = RIOK3 (human) (UniProt O14730)
# CSNK1G1 (human) = CSNK1G1 (human) (UniProt Q9HCP0)
# CDK3 (human) = CDK3 (human) (UniProt Q00526)
# DAPK2 (human) = DAPK2 (human) (UniProt Q9UIK4)
# RIOK1 (human) = RIOK1 (human) (UniProt Q9BRS2)
# MAP3K5 (human) = MAP3K5 (human) (UniProt Q99683)
# TGFBR2 (human) = TGFBR2 (human) (UniProt P37173)
# STK25 (human) = STK25 (human) (UniProt O00506)
# DAPK1 (human) = DAPK1 (human) (UniProt P53355)
# FRK (human) = FRK (human) (UniProt P42685)
# MAPK1 (human) = MAPK1 (human) (UniProt P28482)
# [1] = molecular target: JAK1 JH1 catalytic (human) (UniProt P23458)
# LTK (human) = LTK (human) (UniProt P29376)
# STK32B (human) = STK32B (human) (UniProt Q9NY57)
# LATS2 (human) = LATS2 (human) (UniProt Q9NRM7)
# MAPK9 (human) = MAPK9 (human) (UniProt P45984)
# PRKD1 (human) = PRKD1 (human) (UniProt Q15139)
# MAP3K11 (human) = MAP3K11 (human) (UniProt Q16584)
# RPS6KA3 KD1 (human) = RPS6KA3 KD1 (human) (UniProt P51812)
# TXK (human) = TXK (human) (UniProt P42681)
# CDC2L2 (human) = CDC2L2 (human) (UniProt Q9UQ88)
# PAK1 (human) = PAK1 (human) (UniProt Q13153)
# RPS6KA6 KD2 (human) = RPS6KA6 KD2 (human) (UniProt Q9UK32)
# MAPK4 (human) = MAPK4 (human) (UniProt P31152)
# STK10 (human) = STK10 (human) (UniProt O94804)
# EPHA4 (human) = EPHA4 (human) (UniProt P54764)
# RIOK1 (human), sequence (Q9BRS2 whole entry, looked up): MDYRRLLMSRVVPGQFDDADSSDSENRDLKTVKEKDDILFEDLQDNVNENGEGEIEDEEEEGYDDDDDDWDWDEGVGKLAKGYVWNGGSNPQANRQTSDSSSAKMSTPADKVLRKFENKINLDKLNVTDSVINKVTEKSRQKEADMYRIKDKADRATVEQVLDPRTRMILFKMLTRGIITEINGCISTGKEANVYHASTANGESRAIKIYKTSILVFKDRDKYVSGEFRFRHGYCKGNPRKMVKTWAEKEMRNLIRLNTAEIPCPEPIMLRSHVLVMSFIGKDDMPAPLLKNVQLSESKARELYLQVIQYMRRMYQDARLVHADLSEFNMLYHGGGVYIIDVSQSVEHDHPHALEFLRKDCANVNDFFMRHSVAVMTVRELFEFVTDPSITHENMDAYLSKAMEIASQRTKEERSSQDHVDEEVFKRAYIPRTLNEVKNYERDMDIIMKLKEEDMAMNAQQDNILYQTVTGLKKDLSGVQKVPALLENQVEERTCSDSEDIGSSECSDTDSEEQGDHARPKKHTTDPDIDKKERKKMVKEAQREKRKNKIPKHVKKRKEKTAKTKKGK
# MAP3K5 (human), sequence (Q99683 whole entry, looked up): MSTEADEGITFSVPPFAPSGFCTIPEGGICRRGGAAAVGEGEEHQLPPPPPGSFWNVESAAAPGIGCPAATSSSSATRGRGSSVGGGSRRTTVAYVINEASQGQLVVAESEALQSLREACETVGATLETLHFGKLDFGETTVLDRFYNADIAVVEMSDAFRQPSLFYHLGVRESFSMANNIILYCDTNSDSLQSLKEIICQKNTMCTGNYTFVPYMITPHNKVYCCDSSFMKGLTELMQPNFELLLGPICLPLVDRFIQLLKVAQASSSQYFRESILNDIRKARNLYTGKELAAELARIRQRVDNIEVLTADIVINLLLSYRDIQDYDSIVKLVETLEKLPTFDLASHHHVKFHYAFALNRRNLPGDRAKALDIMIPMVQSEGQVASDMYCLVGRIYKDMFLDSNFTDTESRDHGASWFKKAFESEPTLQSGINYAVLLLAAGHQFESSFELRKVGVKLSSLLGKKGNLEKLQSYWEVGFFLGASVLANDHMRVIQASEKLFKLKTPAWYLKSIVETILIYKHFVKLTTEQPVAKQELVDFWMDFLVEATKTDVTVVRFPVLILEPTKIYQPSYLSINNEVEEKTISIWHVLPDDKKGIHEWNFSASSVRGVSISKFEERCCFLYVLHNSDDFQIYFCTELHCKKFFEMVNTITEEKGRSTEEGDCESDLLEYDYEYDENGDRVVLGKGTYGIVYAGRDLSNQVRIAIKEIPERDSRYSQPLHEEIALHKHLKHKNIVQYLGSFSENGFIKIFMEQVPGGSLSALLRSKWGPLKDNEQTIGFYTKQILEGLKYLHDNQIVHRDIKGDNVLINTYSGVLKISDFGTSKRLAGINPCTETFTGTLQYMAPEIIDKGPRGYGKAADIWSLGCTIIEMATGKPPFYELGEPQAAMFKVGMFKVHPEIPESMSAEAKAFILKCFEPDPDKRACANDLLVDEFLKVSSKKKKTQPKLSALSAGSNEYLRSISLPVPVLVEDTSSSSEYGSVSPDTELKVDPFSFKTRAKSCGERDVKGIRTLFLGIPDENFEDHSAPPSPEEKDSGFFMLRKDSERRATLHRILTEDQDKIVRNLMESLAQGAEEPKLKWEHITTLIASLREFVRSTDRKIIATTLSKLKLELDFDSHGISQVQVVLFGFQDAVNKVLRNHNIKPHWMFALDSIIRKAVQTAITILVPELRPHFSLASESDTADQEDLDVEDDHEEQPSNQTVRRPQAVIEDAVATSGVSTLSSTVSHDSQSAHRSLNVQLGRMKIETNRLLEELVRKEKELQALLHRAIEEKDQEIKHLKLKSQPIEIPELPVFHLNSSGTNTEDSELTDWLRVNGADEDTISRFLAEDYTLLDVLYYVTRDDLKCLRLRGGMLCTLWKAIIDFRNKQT
# PTK2B (human), sequence (Q14289 whole entry, looked up): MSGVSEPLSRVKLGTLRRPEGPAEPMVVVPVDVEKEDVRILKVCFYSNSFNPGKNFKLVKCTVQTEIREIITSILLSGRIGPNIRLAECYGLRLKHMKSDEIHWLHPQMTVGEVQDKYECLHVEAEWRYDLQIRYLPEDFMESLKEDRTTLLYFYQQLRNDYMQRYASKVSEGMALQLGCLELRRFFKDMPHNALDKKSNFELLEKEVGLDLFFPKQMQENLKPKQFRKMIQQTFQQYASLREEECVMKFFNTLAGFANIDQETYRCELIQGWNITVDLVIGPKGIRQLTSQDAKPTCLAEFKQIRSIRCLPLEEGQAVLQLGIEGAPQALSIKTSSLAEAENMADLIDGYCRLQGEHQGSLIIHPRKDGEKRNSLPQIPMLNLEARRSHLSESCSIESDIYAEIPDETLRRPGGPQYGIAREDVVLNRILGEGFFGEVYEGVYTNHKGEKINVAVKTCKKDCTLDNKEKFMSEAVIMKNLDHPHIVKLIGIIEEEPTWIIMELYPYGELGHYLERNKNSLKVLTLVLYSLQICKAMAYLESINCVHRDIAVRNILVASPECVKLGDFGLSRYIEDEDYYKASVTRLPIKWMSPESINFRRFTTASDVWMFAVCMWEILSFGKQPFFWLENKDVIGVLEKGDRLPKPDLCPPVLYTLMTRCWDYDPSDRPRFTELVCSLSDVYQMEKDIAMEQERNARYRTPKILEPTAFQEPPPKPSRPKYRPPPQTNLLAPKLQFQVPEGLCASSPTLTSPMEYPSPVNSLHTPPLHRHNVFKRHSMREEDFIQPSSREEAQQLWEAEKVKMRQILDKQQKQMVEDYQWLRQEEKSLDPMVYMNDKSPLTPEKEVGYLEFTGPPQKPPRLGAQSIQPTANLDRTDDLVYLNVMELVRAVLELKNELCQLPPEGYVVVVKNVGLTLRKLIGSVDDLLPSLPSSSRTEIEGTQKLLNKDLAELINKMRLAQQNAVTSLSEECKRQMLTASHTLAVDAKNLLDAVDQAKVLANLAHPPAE
# PAK1 (human), sequence (Q13153 whole entry, looked up): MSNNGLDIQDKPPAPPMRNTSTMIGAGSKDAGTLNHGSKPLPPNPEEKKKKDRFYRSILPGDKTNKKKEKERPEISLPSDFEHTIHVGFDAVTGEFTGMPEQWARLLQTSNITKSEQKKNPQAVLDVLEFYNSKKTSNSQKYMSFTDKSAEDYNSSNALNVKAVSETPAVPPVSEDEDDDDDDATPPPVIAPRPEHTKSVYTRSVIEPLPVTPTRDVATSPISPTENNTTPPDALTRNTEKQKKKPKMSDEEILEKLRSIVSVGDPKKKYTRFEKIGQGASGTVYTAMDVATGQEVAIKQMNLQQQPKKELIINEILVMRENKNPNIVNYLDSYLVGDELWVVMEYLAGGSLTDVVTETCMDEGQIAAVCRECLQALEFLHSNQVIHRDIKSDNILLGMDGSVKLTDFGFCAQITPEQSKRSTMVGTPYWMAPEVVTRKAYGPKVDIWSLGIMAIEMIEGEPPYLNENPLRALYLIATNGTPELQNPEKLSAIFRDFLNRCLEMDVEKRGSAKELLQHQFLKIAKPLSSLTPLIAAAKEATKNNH
# LTK (human), sequence (P29376 whole entry, looked up): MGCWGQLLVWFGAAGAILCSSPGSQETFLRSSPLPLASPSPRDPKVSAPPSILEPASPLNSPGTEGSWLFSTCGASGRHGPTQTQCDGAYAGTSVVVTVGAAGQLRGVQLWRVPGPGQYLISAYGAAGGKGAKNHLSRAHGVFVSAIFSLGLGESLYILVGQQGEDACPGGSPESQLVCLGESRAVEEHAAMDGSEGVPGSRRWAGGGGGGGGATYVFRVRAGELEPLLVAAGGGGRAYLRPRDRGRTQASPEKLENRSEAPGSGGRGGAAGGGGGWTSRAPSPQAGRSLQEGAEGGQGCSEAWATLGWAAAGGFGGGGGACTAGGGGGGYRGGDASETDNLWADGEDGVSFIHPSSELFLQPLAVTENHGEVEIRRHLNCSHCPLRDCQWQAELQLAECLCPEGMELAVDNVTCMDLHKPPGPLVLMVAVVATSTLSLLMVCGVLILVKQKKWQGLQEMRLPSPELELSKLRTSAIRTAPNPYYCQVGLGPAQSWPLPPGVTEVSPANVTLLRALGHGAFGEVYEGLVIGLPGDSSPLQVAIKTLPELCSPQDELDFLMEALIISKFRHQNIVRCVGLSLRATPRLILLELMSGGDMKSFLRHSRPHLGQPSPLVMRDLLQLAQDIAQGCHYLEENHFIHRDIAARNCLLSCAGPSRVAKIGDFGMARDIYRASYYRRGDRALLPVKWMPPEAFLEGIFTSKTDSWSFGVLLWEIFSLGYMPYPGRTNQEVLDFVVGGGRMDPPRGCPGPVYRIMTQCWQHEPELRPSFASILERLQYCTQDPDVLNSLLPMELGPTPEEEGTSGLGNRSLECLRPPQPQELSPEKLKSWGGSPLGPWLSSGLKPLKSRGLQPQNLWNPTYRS
# RIOK3 (human), sequence (O14730 whole entry, looked up): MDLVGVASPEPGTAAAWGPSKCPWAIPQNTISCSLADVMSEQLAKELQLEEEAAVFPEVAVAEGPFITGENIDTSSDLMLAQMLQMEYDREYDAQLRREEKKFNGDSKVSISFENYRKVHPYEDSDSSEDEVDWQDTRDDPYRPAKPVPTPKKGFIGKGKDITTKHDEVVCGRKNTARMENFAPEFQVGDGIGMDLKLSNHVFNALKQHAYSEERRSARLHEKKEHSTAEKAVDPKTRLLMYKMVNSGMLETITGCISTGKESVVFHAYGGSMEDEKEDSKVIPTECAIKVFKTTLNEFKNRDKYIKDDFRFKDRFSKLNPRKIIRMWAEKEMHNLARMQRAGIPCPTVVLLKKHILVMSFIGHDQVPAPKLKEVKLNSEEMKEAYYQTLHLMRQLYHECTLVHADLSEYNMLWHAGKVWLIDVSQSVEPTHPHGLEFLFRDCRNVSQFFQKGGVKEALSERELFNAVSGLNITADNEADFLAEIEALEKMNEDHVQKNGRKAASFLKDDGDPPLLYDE
Compound,"kinase still bound, per cent of control (PTK2B (human))","kinase still bound, per cent of control (MAP4K4 (human))","kinase still bound, per cent of control (CSNK1G3 (human))","kinase still bound, per cent of control (PAK6 (human))","kinase still bound, per cent of control (ACVR2B (human))","kinase still bound, per cent of control (CAMK2G (human))","kinase still bound, per cent of control (ADCK3 (human))","kinase still bound, per cent of control (CDK9 (human))","kinase still bound, per cent of control (CHEK2 (human))","kinase still bound, per cent of control (TNK1 (human))","kinase still bound, per cent of control (CIT (human))","kinase still bound, per cent of control (RIPK4 (human))","kinase still bound, per cent of control (EPHA5 (human))","kinase still bound, per cent of control (MINK1 (human))","kinase still bound, per cent of control (RIOK3 (human))","kinase still bound, per cent of control (CSNK1G1 (human))","kinase still bound, per cent of control (CDK3 (human))","kinase still bound, per cent of control (DAPK2 (human))","kinase still bound, per cent of control (RIOK1 (human))","kinase still bound, per cent of control (MAP3K5 (human))",also measured
OCCCNc1cc(-c2ccnc(Nc3cccc(Cl)c3)n2)ccn1,100%,100%,100%,100%,100%,100%,100%,10%,100%,100%,100%,100%,100%,100%,100%,100%,100%,100%,100%,100%,"kinase still bound, per cent of control (TGFBR2 (human)): 100%; kinase still bound, per cent of control (STK25 (human)): 100%; kinase still bound, per cent of control (DAPK1 (human)): 100%; kinase still bound, per cent of control (FRK (human)): 100%; kinase still bound, per cent of control (MAPK1 (human)): 100%; kinase still bound, per cent of control [1]: 100%; kinase still bound, per cent of control (LTK (human)): 100%; kinase still bound, per cent of control (STK32B (human)): 100%; kinase still bound, per cent of control (LATS2 (human)): 100%; kinase still bound, per cent of control (MAPK9 (human)): 100%; kinase still bound, per cent of control (PRKD1 (human)): 100%; kinase still bound, per cent of control (MAP3K11 (human)): 100%; kinase still bound, per cent of control (RPS6KA3 KD1 (human)): 100%; kinase still bound, per cent of control (TXK (human)): 100%; kinase still bound, per cent of control (CDC2L2 (human)): 100%; kinase still bound, per cent of control (PAK1 (human)): 100%; kinase still bound, per cent of control (RPS6KA6 KD2 (human)): 100%; kinase still bound, per cent of control (MAPK4 (human)): 100%; kinase still bound, per cent of control (STK10 (human)): 100%; kinase still bound, per cent of control (EPHA4 (human)): 100%"
Nc1ccc(-c2ccc3ncc4ccc(=O)n(-c5cccc(C(F)(F)F)c5)c4c3c2)cn1,86%,71%,63%,100%,97%,95%,88%,93%,100%,100%,100%,100%,100%,56%,100%,100%,100%,100%,65%,100%,"kinase still bound, per cent of control (TGFBR2 (human)): 84%; kinase still bound, per cent of control (STK25 (human)): 56%; kinase still bound, per cent of control (DAPK1 (human)): 91%; kinase still bound, per cent of control (FRK (human)): 100%; kinase still bound, per cent of control (MAPK1 (human)): 100%; kinase still bound, per cent of control [1]: 92%; kinase still bound, per cent of control (LTK (human)): 100%; kinase still bound, per cent of control (STK32B (human)): 100%; kinase still bound, per cent of control (LATS2 (human)): 100%; kinase still bound, per cent of control (MAPK9 (human)): 89%; kinase still bound, per cent of control (PRKD1 (human)): 87%; kinase still bound, per cent of control (MAP3K11 (human)): 96%; kinase still bound, per cent of control (RPS6KA3 KD1 (human)): 80%; kinase still bound, per cent of control (TXK (human)): 100%; kinase still bound, per cent of control (CDC2L2 (human)): 98%; kinase still bound, per cent of control (PAK1 (human)): 95%; kinase still bound, per cent of control (RPS6KA6 KD2 (human)): 70%; kinase still bound, per cent of control (MAPK4 (human)): 75%; kinase still bound, per cent of control (STK10 (human)): 100%; kinase still bound, per cent of control (EPHA4 (human)): 100%"
